Measurements: patent US20080159995A1, “TREATMENT OF FIBROSIS” (priority 2006, published 2008)

Columns and labels:
[1] = cited from earlier work
[2] = tested on: Transforming Growth Factor (TGF)-β-Connective Tissue Growth Factor (CTGF) interactions via a Rho signalling pathway; conditions: recent studies, refs 1 and 2; cited from earlier work
[3] = tested on: A549 alveolar epithelial cells; assay: alveolar epithelial cell wound repair model (in vitro epithelial wound-healing assay); format: cell-based, human; conditions: mechanically wounded monolayer, FIG. 4
Procedure: In the present studies an alveolar epithelial cells wound repair model was employed. […] Closure of this wound was monitored over 24 hours following treatment.
The wound healing assays were performed utilising A549 alveolar epithelial cells. The epithelial repair activity was determined using an in-vitro epithelial wound-healing assay as described in Example 1 (Geiser T et al. Am J Respir Crit. Care Med. 2001; 163: 1384-1388) using human A549 alveolar epithelial-like cells (American Type Culture Collection, Rockville, Md.). Briefly, A549 epithelial cells were cultured to confluency in 12-well plates for 48 hours in minimal essential medium (MEM) containing 10% fetal bovine serum and then mechanically wounded with a pipette tip. Concentrated BALF from each patient was added to the wounded epithelial monolayers (experiments performed in triplicates) and the area of the wound was measured over a time period of 24 hours.

| Structure (SMILES) | solubility in acetonitrile ([1]; acetonitrile) | solubility in ethanol ([1]; ethanol) | solubility in methanol ([1]; methanol) | solubility in water ([1]; water) | anti-fibrotic potential (TGF-β-CTGF interactions, pro-fibrotic differentiation) [2] | wound closure [3] |
| --- | --- | --- | --- | --- | --- | --- |
| CCC(C)C(=O)OC1CC(C)C=C2C=CC(C)C(CCC3CC(O)CC(=O)O3)C21 (stereo not drawn) [Lovastatin, [8-[2-(4-hydroxy-6-oxo-oxan-2-yl)ethyl]-3,7-dimethyl-1,2,3,7,8,8a-hexahydronaphthalen-1-yl]2-methylbutanoate] | sparingly soluble | sparingly soluble | sparingly soluble | insoluble |  |  |
| CCC(C)(C)C(=O)O[C@H]1C[C@@H](C)C=C2C=C[C@@H](C)[C@H](CC[C@@H]3C[C@@H](O)CC(=O)O3)[C@H]21 [simvastatin, [(1S,3R,7R,8S,8aR)-8-[2-[(2R,4R)-4-hydroxy-6-oxo-oxan-2-yl]ethyl]-3,7-dimethyl-1,2,3,7,8,8a-hexahydronaphthalen-1 yl]2,2-dimethylbutanoate] |  |  |  |  | over-riding Transforming Growth Factor (TGF)-β-Connective Tissue Growth Factor (CTGF) interactions | improves wound closure |
